# Data: PubChem BioAssay (NCI)
#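 96-well plates; 48 h exposure; 5 concentrations. Endpoints by linear interpolation between flanking doses. Not reached: highest tested concentration assigned. TGI is the concentration that stops growth completely.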
# How the values were obtained:
# Test in all cases: NCI-60 cell line screen, 48 h
# A549 NSCLC = tested on: A549 NSCLC
# ACHN renal = tested on: ACHN renal
# BT-549 breast = tested on: BT-549 breast
# DU-145 prostate = tested on: DU-145 prostate
# IGROV1 ovarian = tested on: IGROV1 ovarian
# K-562 leukemia = tested on: K-562 leukemia
# KM12 colon = tested on: KM12 colon
# LOX IMVI melanoma = tested on: LOX IMVI melanoma
# MALME-3M melanoma = tested on: MALME-3M melanoma
# MDA-N = tested on: MDA-N
# NCI-H23 lung = tested on: NCI-H23 lung
# NCI-H522 lung = tested on: NCI-H522 lung
# OVCAR-4 ovarian = tested on: OVCAR-4 ovarian
# OVCAR-8 ovarian = tested on: OVCAR-8 ovarian
# RXF 393 renal = tested on: RXF 393 renal
# SF-295 CNS = tested on: SF-295 CNS
# SNB-75 CNS = tested on: SNB-75 CNS
# T-47D breast = tested on: T-47D breast
# U251 CNS = tested on: U251 CNS
# HCC-2998 colon = tested on: HCC-2998 colon
Structure (SMILES),TGI (A549 NSCLC) [µM],TGI (ACHN renal) [µM],TGI (BT-549 breast) [µM],TGI (DU-145 prostate) [µM],TGI (IGROV1 ovarian) [µM],TGI (K-562 leukemia) [µM],TGI (KM12 colon) [µM],TGI (LOX IMVI melanoma) [µM],TGI (MALME-3M melanoma) [µM],TGI (MDA-N) [µM],TGI (NCI-H23 lung) [µM],TGI (NCI-H522 lung) [µM],TGI (OVCAR-4 ovarian) [µM],TGI (OVCAR-8 ovarian) [µM],TGI (RXF 393 renal) [µM],TGI (SF-295 CNS) [µM],TGI (SNB-75 CNS) [µM],TGI (T-47D breast) [µM],TGI (U251 CNS) [µM],TGI (HCC-2998 colon) [µM]
CN(C)CC(C)(C)CN1c2ccccc2Sc2ccccc21,29.3,28.3,27.6,24.8,28.1,22.8,25.8,26.4,27.9,28.2,30.2,25.9,26.5,28.6,13,26.8,18,29.3,26.4,–
c1cc(CSc2ncnc3nc[nH]c23)ccn1,> 100,> 100,> 100,> 100,> 100,> 100,> 100,> 100,> 100,> 100,> 100,> 100,> 100,> 100,> 100,> 100,> 100,> 100,> 100,> 100
C[C@@H]1CC[C@@]2(C)[C@H](C)/C(=C\COC(=O)/C=C/c3ccc(O)c(O)c3)CC[C@@]12C,35.8,16.6,29,23.4,22.6,17.8,15.9,21.5,27.8,14.3,23.1,3.12,19,24.1,39.1,23.2,28,34.7,17.8,20
COC(=O)[C@H](Cc1ccccc1)NC(=O)N(CCNC(=O)OC(C)(C)C)c1ccccc1,> 100,> 100,> 100,> 100,> 100,> 100,> 100,> 100,> 100,> 100,> 100,> 100,> 100,> 100,> 100,> 100,> 100,> 100,> 100,> 100
CN(C)NC1=NS(=O)(=O)c2cc3c(=O)n(C)[nH]c3cc2S1,> 10,> 10,> 10,> 10,> 10,> 10,> 10,> 10,> 10,> 10,> 10,> 10,> 10,> 10,> 10,> 10,> 10,> 10,> 10,> 10
CC(C)CC1N=C(OCc2ccccc2)OC1=O (stereo not drawn),> 100,> 100,> 100,> 100,> 100,> 100,> 100,> 100,> 100,> 100,> 100,> 100,> 100,> 100,> 100,> 100,> 100,> 100,> 100,–
O=C(/C=C/c1cccc(Br)c1)N1CCN(CCOC(c2ccccc2)c2ccccc2)CC1,> 100,> 100,84.2,> 100,> 100,55,> 100,54.8,> 100,> 100,> 100,> 100,> 100,> 100,> 100,> 100,> 100,82.9,> 100,> 100
CCCCCCCCCCCCCCCC(=O)OC1C(O)C(O)C(O)C(O)C12CO2 (stereo not drawn),> 100,> 100,> 100,> 100,> 100,67.8,> 100,53.2,> 100,> 100,> 100,> 100,> 100,57.5,> 100,> 100,93.2,> 100,39.2,> 100
CC(C)C(=O)/C=C/c1c(Cl)cccc1Cl,21.9,16.2,9.81,11.8,14.2,> 100,11.9,7.32,17.9,11.8,7.24,3.11,9.4,13.6,19,24.3,8.38,9.31,11.7,29
O=C(Nc1ccc(Cl)cc1)c1cc(S(=O)(=O)N2CCNNC2=O)c(S)cc1Cl,> 100,> 100,> 100,> 100,> 100,> 100,> 100,> 100,> 100,> 100,–,> 100,> 100,> 100,53.2,> 100,> 100,> 100,> 100,> 100
O=C(NC(OCc1ccccc1)(C(F)(F)F)C(F)(F)F)OCc1ccccc1,28.5,29.2,28.7,30.3,28.6,36.8,30.2,27.6,31.9,28.5,25.8,26.5,–,30.1,25.3,31.4,29,29.4,27.1,28.8
CC1(C)N([O-])[N+](=O)C1(C)O (stereo not drawn),> 100,–,> 100,> 100,> 100,> 100,> 100,> 100,> 100,> 100,> 100,> 100,> 100,> 100,> 100,–,> 100,> 100,> 100,> 100
COc1ccc2nc3cc(Cl)ccc3c(NCCCCCC(=O)NC(COc3ccc4ccc5cccnc5c4n3)COc3ccc4ccc5cccnc5c4n3)c2c1,50.1,28.9,3.55,23.6,37.4,26.3,85.5,> 100,> 100,45.7,48.6,81.1,99.8,> 100,39.3,> 100,35.4,40.1,26.7,28.1
CN(Cc1cnc2nc(N)nc(N)c2n1)c1ccc(C(=O)NCCCC(=O)O)cc1,> 100,> 71.2,> 100,> 100,> 100,> 100,> 100,> 100,> 100,> 100,> 100,> 100,> 100,> 100,> 100,> 100,> 100,> 100,> 100,> 100
Nc1ccc(C2SCC(=O)N2NS(=O)(=O)c2cccc(C(=O)O)c2)cc1 (stereo not drawn),> 100,> 100,> 100,> 100,> 100,> 100,> 100,> 100,55.7,> 100,> 100,> 100,–,> 100,> 100,> 100,> 100,> 100,> 100,> 100
CCOC(=O)CC1Nc2ccccc2C12CCc1c([nH]c3ccccc13)C2C(=O)OCC (stereo not drawn),> 100,> 100,> 100,> 100,61.7,> 100,> 100,> 100,51.6,> 100,> 100,> 100,> 100,> 100,> 100,22.5,4.72,> 100,> 100,> 100
C=C(C)CCC(O)[C@](C)(O)[C@H]1[C@H](O)C[C@@]2(C)[C@@H]3CCc4c(cc(OC5OC(CO)C(O)C(O)C5O)c(O)c4C)C3(C)C(=O)C[C@]12C (stereo partly drawn),> 100,> 100,> 100,> 100,> 100,> 100,> 100,> 100,> 100,> 100,> 100,> 100,> 100,> 100,> 100,> 100,> 100,> 100,> 100,> 100
S=C(S)NCCN1CCNCC1,> 100,> 100,> 100,> 100,> 100,> 100,> 100,> 100,82.5,> 100,> 100,32.7,> 100,95.3,64.3,> 100,> 100,60.7,> 100,68.7
O=C(CC(C(=O)c1cccs1)c1ccc2c(c1)OCO2)c1ccccc1 (stereo not drawn),> 100,> 100,> 100,> 100,> 100,–,> 100,> 100,> 100,> 100,> 100,> 100,> 100,> 100,> 100,> 100,> 100,> 100,> 100,> 100
CC/C=C\C=C/C(=O)N/C=C/CCC,> 100,> 100,> 100,> 100,> 100,> 100,> 100,> 100,> 100,> 100,> 100,36,> 100,> 100,> 100,–,> 100,> 100,> 100,> 100
CN1CCc2c(sc3ncn(Nc4ccc(F)cc4)c(=N)c23)C1,> 100,> 100,> 100,> 100,> 100,> 100,> 100,> 100,> 100,> 100,> 100,> 100,> 100,> 100,> 100,> 100,> 100,> 100,> 100,–
COc1cc(C(c2ccc3c(c2)OCO3)C2SCCCS2)cc(OC)c1OC (stereo not drawn),53.3,> 100,> 100,8.59,8.17,4.73,26,–,> 100,1.77,51.8,5.87,75.8,64.8,4.47,4.66,5.83,> 100,21.5,8.8
O=C1N[C@H](C(=O)O)[C@@H](c2ccc(OCc3ccccc3)cc2)O1,> 100,> 100,> 100,> 100,78.6,> 100,> 100,–,> 100,> 100,> 100,> 100,> 100,45.8,32.1,79.6,28,> 100,> 100,> 100
c1ccc(/C(=N/Nc2ccccn2)c2cccnn2)cc1,> 69.8,24.5,> 100,> 100,18,> 100,> 100,> 100,> 67.9,> 100,> 50.3,4.93,> 100,18.9,> 100,29.7,32.7,> 100,> 100,> 100
